The values below come from patent US10168342B2, “Lipid probes and uses thereof” (THE SCRIPPS RESEARCH INSTITUTE, priority 2015, dated 2019).

Read-outs that look alike come from different tables or passages of the source. Some results are limits rather than exact numbers.

In test [1] the target is T1, AEA-DA lipid probe targets in Neuro2a cells (Mus musculus, UniProt Q11011).
T1 sequence (Q11011 1-920): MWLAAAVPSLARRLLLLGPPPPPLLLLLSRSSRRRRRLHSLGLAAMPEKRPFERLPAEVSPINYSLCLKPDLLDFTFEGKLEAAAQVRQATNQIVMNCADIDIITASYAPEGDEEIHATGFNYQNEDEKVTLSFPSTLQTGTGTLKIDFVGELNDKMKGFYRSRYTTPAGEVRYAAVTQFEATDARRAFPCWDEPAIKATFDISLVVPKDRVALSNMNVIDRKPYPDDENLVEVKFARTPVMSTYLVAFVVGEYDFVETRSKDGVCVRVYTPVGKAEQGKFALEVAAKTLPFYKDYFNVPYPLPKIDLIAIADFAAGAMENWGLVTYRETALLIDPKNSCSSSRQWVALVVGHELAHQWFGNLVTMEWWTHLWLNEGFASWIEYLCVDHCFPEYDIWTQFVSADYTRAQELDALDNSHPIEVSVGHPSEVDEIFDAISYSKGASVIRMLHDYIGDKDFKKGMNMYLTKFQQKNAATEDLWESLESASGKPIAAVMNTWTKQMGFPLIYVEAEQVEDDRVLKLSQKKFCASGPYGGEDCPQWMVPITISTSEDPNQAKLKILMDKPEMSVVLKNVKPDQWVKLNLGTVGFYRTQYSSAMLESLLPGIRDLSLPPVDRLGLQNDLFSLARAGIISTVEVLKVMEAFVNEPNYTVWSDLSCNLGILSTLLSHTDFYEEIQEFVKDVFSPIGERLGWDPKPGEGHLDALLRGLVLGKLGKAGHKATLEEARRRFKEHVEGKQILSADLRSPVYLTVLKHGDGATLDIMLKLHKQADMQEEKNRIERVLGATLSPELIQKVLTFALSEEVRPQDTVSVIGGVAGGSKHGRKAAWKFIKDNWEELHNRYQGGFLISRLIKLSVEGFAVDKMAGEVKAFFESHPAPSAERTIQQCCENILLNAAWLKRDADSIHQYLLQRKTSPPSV

The target of test [2] is T2, endogenous FAAH in Neuro2a lysates (Mus musculus, UniProt O08914).
T2 construct: endogenous in cells; host or cells: Neuro2a membrane fraction
T2 sequence (O08914 1-579): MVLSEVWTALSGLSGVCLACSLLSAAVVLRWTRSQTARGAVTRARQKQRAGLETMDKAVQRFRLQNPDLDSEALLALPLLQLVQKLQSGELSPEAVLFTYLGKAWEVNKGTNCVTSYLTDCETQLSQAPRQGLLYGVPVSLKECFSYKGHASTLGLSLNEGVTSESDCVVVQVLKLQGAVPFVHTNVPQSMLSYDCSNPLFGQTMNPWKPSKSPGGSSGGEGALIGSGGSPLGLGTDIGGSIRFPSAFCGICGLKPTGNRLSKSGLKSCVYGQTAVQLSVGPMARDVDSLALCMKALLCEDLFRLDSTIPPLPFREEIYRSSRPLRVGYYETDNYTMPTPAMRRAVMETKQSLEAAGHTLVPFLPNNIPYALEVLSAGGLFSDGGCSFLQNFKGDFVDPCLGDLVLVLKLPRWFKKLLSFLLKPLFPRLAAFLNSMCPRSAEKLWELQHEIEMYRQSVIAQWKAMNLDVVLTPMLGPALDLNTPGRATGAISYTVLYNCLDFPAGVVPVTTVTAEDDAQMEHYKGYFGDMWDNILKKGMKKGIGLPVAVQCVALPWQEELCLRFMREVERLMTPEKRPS
Put plainly: FAAH activity by AEA hydrolysis in Neuro2a lysates. Type of test: biochemical. The conditions noted are these: for IC50: read-out: IC50 against endogenous FAAH in Neuro2a lysates; for inhibition of FAAH activity in Neuro2a lysates: up to 250 μM. How it is done: FAAH activity was measured by AEA hydrolysis: The membrane fraction of Neuro2a lysates (200 μL, 2.0 mg/mL) was incubated with DMSO or the test compound (1.0-250 μM) at 37° C. After 15 min, AEA-d8 (25 μM) was added and the samples were incubated for an additional 30 min and then quenched by the addition of two volumes of CHCl3:MeOH (2:1) containing pentadecanoic acid (PDA) (1.0 nmol) as an internal standard. After centrifuging (2,000×g, 5 min, 4° C.) to separate the organic and aqueous layers, the lower organic layer was transferred to a clean vial and analyzed by LC/MS as previously described. (Long et al., 2009) Pure humanized rat FAAH (Mileni et al., 2008) (5.0 ng/μL) was assayed in the same manner. Product levels were quantified by determining peak areas in relation to PDA.

The target in test [3] is AEA-DA lipid probe targets in Neuro2a cells (Mus musculus, UniProt Q8VCL2). The conditions noted are these: competitor 25 μM.
The target of test [4] is T3, AEA-DA lipid probe targets in Neuro2a cells (Mus musculus, UniProt Q8VCX5).
T3 sequence (Q8VCX5 34-477): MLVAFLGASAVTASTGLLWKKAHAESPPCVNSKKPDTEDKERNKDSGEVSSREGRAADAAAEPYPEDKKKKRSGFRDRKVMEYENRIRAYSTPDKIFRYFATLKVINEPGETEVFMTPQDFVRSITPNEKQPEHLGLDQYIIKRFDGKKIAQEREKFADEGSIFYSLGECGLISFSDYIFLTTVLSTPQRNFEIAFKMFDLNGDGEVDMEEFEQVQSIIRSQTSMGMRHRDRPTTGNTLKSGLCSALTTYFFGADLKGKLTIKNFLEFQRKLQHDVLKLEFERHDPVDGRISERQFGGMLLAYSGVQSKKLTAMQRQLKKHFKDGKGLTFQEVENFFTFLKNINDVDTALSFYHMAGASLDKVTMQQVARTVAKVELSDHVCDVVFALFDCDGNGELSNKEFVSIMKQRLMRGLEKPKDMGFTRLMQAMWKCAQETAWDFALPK
The conditions noted are these: protein Micu1, Neuro2a cells.

Sequence of AEA-DA lipid probe targets in Neuro2a cells (Mus musculus, UniProt Q8VCL2) (Q8VCL2 42-255): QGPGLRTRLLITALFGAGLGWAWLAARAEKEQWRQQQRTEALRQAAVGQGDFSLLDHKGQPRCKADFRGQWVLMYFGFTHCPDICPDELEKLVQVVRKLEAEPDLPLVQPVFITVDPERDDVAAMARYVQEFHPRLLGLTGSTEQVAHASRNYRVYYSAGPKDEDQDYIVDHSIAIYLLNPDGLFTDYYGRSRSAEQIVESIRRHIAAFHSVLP

Take `CCCCC/C=C\C/C=C\C/C=C\C/C=C\CCCC(=O)NCCO` [AEA, anandamide, reference compound]: the “SILAC ratio Npepps” value in test [1] (competitor 200 μM) is reported as 1.1.

By IC50 is commonly meant the concentration that gives 50% inhibition. For the molecule `CN1CCN(C(=O)c2c(-c3ccccc3)c3cc([N+](=O)[O-])ccc3n2C)CC1` [KML110, (1-Methyl-5-nitro-3-phenyl-1H-indol-2-yl)(4-methylpiperazin-1-yl)methanone], in test [2], the IC50 was more than 100 µM and the “inhibition of FAAH activity in Neuro2a lysates” value is recorded as “minimal inhibition”. Further, the “SILAC ratio Sco2” value in test [3] is listed as 1.5.

`CN1CCN(C(=O)c2[nH]c3ccc([N+](=O)[O-])cc3c2-c2ccccc2)CC1` [MJN228, (4-Methylpiperazin-1-yl)(5-nitro-3-phenyl-1H-indol-2-yl)methanone]: the IC50 in test [2] is more than 100 µM. In test [2], the “inhibition of FAAH activity in Neuro2a lysates” value is given as “minimal inhibition”. Further, the “SILAC ratio Npepps” value in test [1] (competitor 25 μM) is given as 1.5; in test [1] (competitor 100 μM), 4.3. For the same molecule, the “SILAC ratio (AEA-DA competition)” value in test [4] (competitor 10 μM) is recorded as 1.2; in test [4] (competitor 25 μM), 1.5.

`C=CCN(C)CCCCCCOc1ccc(C(=O)c2ccc(Br)cc2)c(F)c1` [Ro 48-8071, reference compound]: the “SILAC ratio Sco2” value in test [3] was 1.0. For the same molecule, the “SILAC ratio (AEA-DA competition)” value in test [4] (competitor 25 μM) amounted to 0.9.
